Test system: PHB2/REA localization in MCF-7 cells
Experiment: Nuclear translocation of PHB2/REA (fractionation, immunoblotting, immunostaining)
Format: cell-based, human
Details: for nuclear translocation of PHB2/REA, temporal: 1 hour to 24 hours after administration
Description: FIG. 3-1 is a diagram illustrating that ERAP1-peptide treatment promotes nuclear translocation of PHB2. […] MCF-7 cells were stimulated for 24 hours with 10 μM ERAP1-peptide and/or 10 nM E2. The cells were fractioned into mitochondria, cytoplasm, and nuclear fractions by specific gravity centrifugation. Then, each fraction was subjected to immunoblotting analysis using an anti-ERAP1 antibody and an anti-PHB2 antibody. PRDX3, α/β-Tublin (Tublin) and lamin B are markers for mitochondria, cytoplasm, and nuclear fractions, respectively (upper panel). The protein content of each fraction was evaluated with Coomassie-stained SDS-PAGE gel (lower panel). […] KPL-3C cells were treated for 24 hours with 10 μM HA-tagged ERAP1-peptide and/or 10 nM E2. Then, the cells were fractionated into cytoplasm and nuclear fractions by specific gravity centrifugation. Then, which fraction was immunoprecipitated with anti-ERα antibody, an anti-ERAP1 antibody or an anti-PHB2 antibody. Then, immunoblotting was performed with each antibody shown in the figure (an anti-ERAP1 antibody, an anti-ERα antibody, an anti-PHB2 antibody and an anti-HA antibody (Peptide)). α/β-Tubulin (Tubulin) and Lamin B are markers for cytoplasm and nuclear fractions, respectively.
FIG. 4-1 is a diagram illustrating that the ERAP1-peptide promotes nuclear translocation of PHB2. (A) The upper panel illustrates representative images of stained immune cells, showing the intracellular localization of PHB2. MCF-7 cells were treated with 10 μM ERAP1-peptide or ERAP1-scramble peptide. Subsequently, the cells were treated with 10 nM E2. After the immobilization, the cells were subjected to immunofluorescent staining using an anti-PHB2 antibody and DAPI (for discriminating the nucleus).
FIG. 4-2 is a diagram illustrating that the ERAP1-peptide promotes nuclear translocation of PHB2. (B) is a diagram illustrating the results of immunoblotting analysis by which the intracellular localization of PHB2 was detected, MCF-7 cells were treated with the ERAP1-peptide or the ERAP1-scramble peptide. Subsequently immediately, the cells were treated with 10 nM E2. The cells were fractionated into cytoplasm and nuclear fractions after 1 hour or 24 hours. Each fraction was immunoprecipitated with anti-ERα antibody, an anti-ERAP1 antibody or a PH82 antibody. […]
MCF-7 cells were seeded in an 8-well chamber (Laboratory-Tek II Chamber Slide System, Nalgen Nunc International, Naperville, Ill., USA) in 5×10^4 cells/well, and cultured under estrogen-free condition for 24 hours. […] The fluorescence image was obtained under Olympus IX71 microscope (Tokyo, Japan). […]

Row | Compound | nuclear translocation of PHB2/REA, temporal | translocation of PHB2/REA from the cytoplasm into the nucleus (E2 and peptide at the same time, 10 μM, 24 hours)
1 | CSCC[C@H](NC(=O)[C@H](CCC(N)=O)NC(=O)[C@H](CCCNC(=N)N)NC(=O)[C@H](CCCNC(=N)N)NC(=O)[C@H](CCCNC(=N)N)NC(=O)[C@H](CCCNC(=N)N)NC(=O)[C@H](CCCNC(=N)N)NC(=O)[C@H](CCCNC(=N)N)NC(=O)[C@H](CCCNC(=N)N)NC(=O)[C@H](CCCNC(=N)N)NC(=O)[C@H](CCCNC(=N)N)NC(=O)[C@H](CCCNC(=N)N)NC(=O)[C@@H](N)CCCNC(=N)N)C(=O)N[C@@H](CC(C)C)C(=O)N[C@@H](CO)C(=O)N[C@@H](CC(=O)O)C(=O)N[C@@H](CC(C)C)C(=O)N[C@H](C(=O)N[C@@H](CC(C)C)C(=O)N[C@@H](CCC(N)=O)C(=O)N[C@@H](CC(C)C)C(=O)N[C@@H](CCCNC(=N)N)C(=O)N[C@@H](CCC(N)=O)C(=O)N[C@@H](CCCNC(=N)N)C(=O)O)[C@@H](C)O [ERAP1-peptide] | Prompt nuclear translocation of inherent PHB2/REA at 1 hour | remarkable translocation of PHB2/REA from the cytoplasm into the nucleus
2 | DRQLQLSTLQRML (SEQ ID NO: 28) (ERAP1-scramble peptide) [reference compound] | not recognized | 

From patent US9725490B2, “ERAP1-derived peptide and use thereof” (TOKUSHIMA UNIVERSITY, priority 2011, dated 2017)
